Experimental findings from ChEMBL document CHEMBL1134961, “[(125)I]-N-[(3-azido-5-iodo)benzyl]dantrolene and [(125)I]-N-[[3-iodo-5-(3-trifluoromethyl-3H-diazirin-3-yl)]benzyl]dantrolene: photoaffinity probes specific for the physiological Ca(2+) release from sarcoplasmic reticulum of skeletal muscle” (Bioorg Med Chem Lett, 2002) are described below.

The target of this assay is Ryanodine receptor 1 (Mus musculus) (UniProt E9PZQ0). In words: Selective inhibition of Ryanodine receptor 1 mediated physiological [Ca2+] release (PCR) from sarcoplasmic reticulum against calcium-induced Ca2+ release (CICR). The format is functional.

Active and inactive are the calls of the source. No cut-off for these calls is given here.

Sequence of Ryanodine receptor 1 (Mus musculus) (E9PZQ0 whole entry): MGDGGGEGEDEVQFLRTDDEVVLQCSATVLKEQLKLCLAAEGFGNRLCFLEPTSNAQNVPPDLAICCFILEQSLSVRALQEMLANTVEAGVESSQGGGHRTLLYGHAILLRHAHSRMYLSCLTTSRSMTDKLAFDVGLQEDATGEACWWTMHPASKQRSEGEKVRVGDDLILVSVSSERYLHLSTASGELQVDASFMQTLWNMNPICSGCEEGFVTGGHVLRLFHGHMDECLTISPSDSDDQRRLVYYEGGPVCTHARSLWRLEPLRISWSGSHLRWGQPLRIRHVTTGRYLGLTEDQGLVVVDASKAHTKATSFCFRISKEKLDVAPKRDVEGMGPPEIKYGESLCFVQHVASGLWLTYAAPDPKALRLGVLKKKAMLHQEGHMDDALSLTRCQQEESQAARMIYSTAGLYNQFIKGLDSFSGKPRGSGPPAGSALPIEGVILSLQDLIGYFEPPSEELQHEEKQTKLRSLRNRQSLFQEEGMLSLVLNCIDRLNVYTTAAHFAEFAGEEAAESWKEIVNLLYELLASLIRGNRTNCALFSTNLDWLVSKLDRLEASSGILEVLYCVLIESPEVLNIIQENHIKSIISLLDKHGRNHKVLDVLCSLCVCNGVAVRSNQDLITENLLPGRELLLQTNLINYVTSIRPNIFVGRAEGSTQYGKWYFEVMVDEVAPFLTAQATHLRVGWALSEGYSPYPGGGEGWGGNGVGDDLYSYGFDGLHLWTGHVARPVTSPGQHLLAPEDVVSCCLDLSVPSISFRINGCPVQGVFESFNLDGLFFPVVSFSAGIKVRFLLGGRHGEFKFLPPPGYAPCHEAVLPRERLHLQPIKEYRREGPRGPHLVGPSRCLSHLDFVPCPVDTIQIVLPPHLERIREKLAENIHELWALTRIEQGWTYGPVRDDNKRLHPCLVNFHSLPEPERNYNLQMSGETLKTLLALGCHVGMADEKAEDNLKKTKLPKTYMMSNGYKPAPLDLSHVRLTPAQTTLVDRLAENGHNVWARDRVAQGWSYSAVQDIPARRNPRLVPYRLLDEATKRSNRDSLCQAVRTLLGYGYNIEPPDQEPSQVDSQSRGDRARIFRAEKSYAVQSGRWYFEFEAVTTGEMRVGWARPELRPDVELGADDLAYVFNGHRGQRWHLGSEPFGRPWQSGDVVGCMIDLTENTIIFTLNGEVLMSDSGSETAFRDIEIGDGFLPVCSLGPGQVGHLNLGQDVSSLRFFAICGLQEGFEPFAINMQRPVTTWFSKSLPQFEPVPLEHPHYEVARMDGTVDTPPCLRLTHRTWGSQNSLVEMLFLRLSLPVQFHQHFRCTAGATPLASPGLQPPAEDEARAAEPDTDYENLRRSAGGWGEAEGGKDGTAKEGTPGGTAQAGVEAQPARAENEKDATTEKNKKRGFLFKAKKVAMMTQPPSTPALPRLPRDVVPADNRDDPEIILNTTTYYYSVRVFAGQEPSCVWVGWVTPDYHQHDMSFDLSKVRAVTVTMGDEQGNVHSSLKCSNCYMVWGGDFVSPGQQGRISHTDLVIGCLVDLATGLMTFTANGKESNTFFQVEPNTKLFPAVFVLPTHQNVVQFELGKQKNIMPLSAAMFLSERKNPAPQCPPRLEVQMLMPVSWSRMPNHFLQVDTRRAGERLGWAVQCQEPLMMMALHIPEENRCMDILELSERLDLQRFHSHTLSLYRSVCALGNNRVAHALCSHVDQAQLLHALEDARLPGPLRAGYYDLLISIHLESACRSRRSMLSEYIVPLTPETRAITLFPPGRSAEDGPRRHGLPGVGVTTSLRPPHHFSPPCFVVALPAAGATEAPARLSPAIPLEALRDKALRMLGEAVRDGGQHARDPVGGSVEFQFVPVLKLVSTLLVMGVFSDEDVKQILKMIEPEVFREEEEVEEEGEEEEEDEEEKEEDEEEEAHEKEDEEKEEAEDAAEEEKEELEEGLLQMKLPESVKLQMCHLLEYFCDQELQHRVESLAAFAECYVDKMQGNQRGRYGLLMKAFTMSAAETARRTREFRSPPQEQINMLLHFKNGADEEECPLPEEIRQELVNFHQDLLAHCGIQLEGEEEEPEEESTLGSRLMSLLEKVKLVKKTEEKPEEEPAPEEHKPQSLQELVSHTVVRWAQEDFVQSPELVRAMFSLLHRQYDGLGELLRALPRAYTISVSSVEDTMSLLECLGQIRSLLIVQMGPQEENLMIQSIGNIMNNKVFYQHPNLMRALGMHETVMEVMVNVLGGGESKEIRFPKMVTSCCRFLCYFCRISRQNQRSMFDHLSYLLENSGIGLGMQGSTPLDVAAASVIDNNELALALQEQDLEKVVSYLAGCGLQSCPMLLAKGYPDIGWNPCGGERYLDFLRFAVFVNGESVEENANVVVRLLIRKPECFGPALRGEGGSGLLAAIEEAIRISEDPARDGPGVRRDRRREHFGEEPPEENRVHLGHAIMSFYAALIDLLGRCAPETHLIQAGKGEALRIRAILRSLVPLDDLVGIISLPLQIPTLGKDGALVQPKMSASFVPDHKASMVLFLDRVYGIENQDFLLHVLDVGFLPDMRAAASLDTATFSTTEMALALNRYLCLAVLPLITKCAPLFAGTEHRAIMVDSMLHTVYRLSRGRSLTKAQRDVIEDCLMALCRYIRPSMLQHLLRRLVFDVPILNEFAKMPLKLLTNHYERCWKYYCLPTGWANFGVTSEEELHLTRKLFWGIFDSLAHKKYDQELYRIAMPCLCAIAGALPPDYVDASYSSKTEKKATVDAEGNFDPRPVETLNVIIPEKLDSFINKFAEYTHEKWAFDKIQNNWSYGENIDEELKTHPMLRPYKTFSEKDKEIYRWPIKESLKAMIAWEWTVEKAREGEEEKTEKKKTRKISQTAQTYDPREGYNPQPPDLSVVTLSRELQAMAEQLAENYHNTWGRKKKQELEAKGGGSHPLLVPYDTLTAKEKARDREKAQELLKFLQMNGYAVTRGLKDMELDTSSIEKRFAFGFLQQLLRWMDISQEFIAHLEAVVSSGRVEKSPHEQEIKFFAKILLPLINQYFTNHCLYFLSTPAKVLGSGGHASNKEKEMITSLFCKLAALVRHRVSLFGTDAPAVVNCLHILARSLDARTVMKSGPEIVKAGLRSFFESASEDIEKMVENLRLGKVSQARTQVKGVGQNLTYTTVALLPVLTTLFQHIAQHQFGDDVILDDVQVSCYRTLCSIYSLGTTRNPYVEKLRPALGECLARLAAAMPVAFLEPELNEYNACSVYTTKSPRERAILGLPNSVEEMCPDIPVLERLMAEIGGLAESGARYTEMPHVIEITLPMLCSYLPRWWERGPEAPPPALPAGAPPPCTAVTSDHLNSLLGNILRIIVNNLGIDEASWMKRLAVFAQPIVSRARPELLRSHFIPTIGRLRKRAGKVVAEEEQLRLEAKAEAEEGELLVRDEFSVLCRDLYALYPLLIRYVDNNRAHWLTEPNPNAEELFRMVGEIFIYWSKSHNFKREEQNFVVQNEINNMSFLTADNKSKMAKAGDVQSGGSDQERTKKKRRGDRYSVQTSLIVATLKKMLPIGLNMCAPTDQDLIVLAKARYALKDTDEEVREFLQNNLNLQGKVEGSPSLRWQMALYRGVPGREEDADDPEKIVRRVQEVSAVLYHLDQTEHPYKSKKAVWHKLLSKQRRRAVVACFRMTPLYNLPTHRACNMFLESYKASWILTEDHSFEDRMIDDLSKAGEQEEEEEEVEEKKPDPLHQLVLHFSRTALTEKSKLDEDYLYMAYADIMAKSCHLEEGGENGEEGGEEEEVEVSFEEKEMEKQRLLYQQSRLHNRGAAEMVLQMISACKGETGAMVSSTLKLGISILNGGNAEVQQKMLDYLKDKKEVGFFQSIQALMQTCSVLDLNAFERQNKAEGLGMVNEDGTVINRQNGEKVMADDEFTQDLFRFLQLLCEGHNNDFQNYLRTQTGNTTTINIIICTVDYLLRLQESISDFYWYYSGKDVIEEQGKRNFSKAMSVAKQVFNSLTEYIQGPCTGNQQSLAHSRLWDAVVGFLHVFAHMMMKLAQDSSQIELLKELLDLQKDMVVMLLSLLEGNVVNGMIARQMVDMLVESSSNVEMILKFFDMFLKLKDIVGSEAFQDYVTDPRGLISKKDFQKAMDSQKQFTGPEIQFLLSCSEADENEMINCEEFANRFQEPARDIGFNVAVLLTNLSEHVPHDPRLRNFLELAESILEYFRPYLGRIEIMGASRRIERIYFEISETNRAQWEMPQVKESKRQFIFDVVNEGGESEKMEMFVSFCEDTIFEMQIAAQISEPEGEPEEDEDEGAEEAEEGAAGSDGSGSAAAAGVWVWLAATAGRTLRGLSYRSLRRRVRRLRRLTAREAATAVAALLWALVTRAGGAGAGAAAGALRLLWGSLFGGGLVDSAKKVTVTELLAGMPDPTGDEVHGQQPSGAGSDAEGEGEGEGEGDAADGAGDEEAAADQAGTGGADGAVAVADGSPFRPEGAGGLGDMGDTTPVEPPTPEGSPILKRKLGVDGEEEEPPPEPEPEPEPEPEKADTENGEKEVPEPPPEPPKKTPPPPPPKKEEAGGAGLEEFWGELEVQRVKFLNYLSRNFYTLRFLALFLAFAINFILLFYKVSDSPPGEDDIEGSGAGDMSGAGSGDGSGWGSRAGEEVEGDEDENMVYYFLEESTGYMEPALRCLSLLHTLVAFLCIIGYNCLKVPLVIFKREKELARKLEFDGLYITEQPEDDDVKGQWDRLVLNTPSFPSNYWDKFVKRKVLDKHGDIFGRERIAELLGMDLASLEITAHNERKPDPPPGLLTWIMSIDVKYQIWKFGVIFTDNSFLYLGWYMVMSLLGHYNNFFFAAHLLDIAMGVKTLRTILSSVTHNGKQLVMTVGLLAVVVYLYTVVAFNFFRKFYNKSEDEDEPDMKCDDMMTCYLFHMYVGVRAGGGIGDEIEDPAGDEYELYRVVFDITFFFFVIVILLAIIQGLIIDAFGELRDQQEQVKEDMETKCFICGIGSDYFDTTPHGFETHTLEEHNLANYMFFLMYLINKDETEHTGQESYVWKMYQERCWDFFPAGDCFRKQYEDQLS

On to `[N-]=[N+]=Nc1cc(I)cc(CN2C(=O)CN(/N=C/c3ccc(-c4ccc([N+](=O)[O-])cc4)o3)C2=O)c1`, for which the result was Active.
To `O=C1CN(/N=C/c2ccc(-c3ccc([N+](=O)[O-])cc3)o2)C(=O)N1Cc1cc(I)cc(C2(C(F)(F)F)N=N2)c1` belongs “Active”.
